Assay results published in ChEMBL document CHEMBL4316582, “Nitro-Group-Containing Drugs” (J Med Chem, 2019).
≈ marks a conversion by molar mass, not a printed value.

System: Mycobacterium tuberculosis
Assay: Antitubercular activity against multidrug-resistant Mycobacterium tuberculosis
Assay type: functional

`O=[N+]([O-])C1CN2C[C@H](OCc3ccc(OC(F)(F)F)cc3)COC2=N1` (stereo partly drawn) showed an MIC of 0.039 to 0.531 µg/mL (≈ 0.108 to 1.47 µM).
`[O-]/[N+](O)=C1/CN2C[C@H](OCc3ccc(OC(F)(F)F)cc3)COC2=N1` was tested, and the MIC was 0.039 to 0.531 µg/mL (≈ 0.108 to 1.47 µM).
Compound `FC(F)(F)Oc1ccc(CO[C@@H]2COc3nccn3C2)cc1` has an MIC of 0.039 to 0.531 µg/mL (≈ 0.124 to 1.69 µM).
